Measurements from patent US10294234B2, “HIV inhibitor compounds” (priority 2017, dated 2019).
Where two headings read alike, the source gives them in different places.

Experiments:
[1] = Summary of the method: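 Test compounds at 1 uM incubated in duplicate with dog, rat and human liver microsomes (0.5 mg/mL protein) plus NADPH-regenerating system; sampled at 2, 12, 25, 45 and 65 minutes. Parent remaining monitored by LC/MS/MS; Clint calculated from in vitro t1/2.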
[2] = test system: HIV-1 (IIIB) in MT-4 cells; experiment: MT-4 HIV assay; type: cell-based; settings: HIV-1 (IIIB), MT-4 cells, 5 days, Cell Titer Glo, read-out: EC50
Summary of the method: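 MT-4 cells infected with HIV-1 IIIB (1:250 stock dilution) were incubated with 1:3 serially diluted compounds in RPMI with 10% FBS for 5 days at 37 °C. Cell Titer Glo luminescence was the readout. Plates included mock-infected wells, no-drug wells and 5 uM AZT controls.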

[3] = Human immunodeficiency virus 1, MT4, 120 h

Row | Human Pred Cl. ([1]; human liver microsomes 0.5 mg/mL, 1 uM compound, NADPH) [L/H/kg] | Rat. Pred. Cl. ([1]; rat liver microsomes 0.5 mg/mL, 1 uM compound, NADPH) [L/H/kg] | Compound | Human Pred Cl. ([1]; human, microsomes) [L/H/kg] | Rat. Pred. Cl. ([1]; rat, microsomes) [L/H/kg] | EC50 [2, 3] [nM] | EC50 [2] [nM]
1 | – | – | COC(=O)N[C@H](C(=O)N[C@@H](Cc1ccc(C#Cc2ccc(N3CC4CCC(C3)N4C3COC3)nc2)cc1)[C@@H](O)CN(Cc1c(F)cc(-c2cc(OC3COC3)ccn2)cc1F)NC(=O)[C@@H](NC(=O)OC)C(C)(C)C(F)(F)F)C(C)(C)C(F)(F)F [Example 127, Methyl ((5S,8S,9S,14S)-11-(2,6-difluoro-4-(4-(oxetan-3-yloxy)pyridin-2-yl)benzyl)-16,16,16-trifluoro-9-hydroxy-15,15-dimethyl-8-(4-((6-(8-(oxetan-3-yl)-3,8-diazabicyclo[3.2.1]octan-3-yl)pyridin-3-yl)ethynyl)benzyl)-3,6,13-trioxo-5-(1,1,1-trifluoro-2-methylpropan-2-yl)-2-oxa-4,7,11,12-tetraazahexadecan-14-yl)carbamate] | 0.54 | 1.3 | 4.19 | –
2 | – | – | COC(=O)N[C@H](C(=O)N[C@@H](Cc1ccc(C#Cc2ccc(N3CC4CCC(C3)N4C3COC3)nc2)cc1)[C@@H](O)CN(Cc1c(F)cc(-c2nnc(C3CC3)o2)cc1F)NC(=O)[C@@H](NC(=O)OC)C(C)(C)C(F)(F)F)C(C)(C)C(F)(F)F [Example 129, Methyl ((5S,8S,9S,14S)-11-(4-(5-cyclopropyl-1,3,4-oxadiazol-2-yl)-2,6-difluorobenzyl)-16,16,16-trifluoro-9-hydroxy-15,15-dimethyl-8-(4-((6-(8-(oxetan-3-yl)-3,8-diazabicyclo[3.2.1]octan-3-yl)pyridin-3-yl)ethynyl)benzyl)-3,6,13-trioxo-5-(1,1,1-trifluoro-2-methylpropan-2-yl)-2-oxa-4,7,11,12-tetraazahexadecan-14-yl)carbamate] | <0.11 | – | 3.62 | –
3 | – | – | COC(=O)N[C@H](C(=O)NNC[C@H](O)[C@H](Cc1ccc(C#Cc2cnc(N3CC4CCC(C3)N4C3COC3)nc2)cc1)NC(=O)[C@@H](NC(=O)OCCc1c(F)cc(-c2cn(C34CC(C3)C4)nn2)cc1F)C(C)(C)C(F)(F)F)C(C)(C)C(F)(F)F [Example 131, Methyl ((5S,8S,9S,14S)-1-(4-(1-(bicyclo[1.1.1]pentan-1-yl)-1H-1,2,3-triazol-4-yl)-2,6-difluorobenzyl)-16,16,16-trifluoro-9-hydroxy-15,15-dimethyl-8-(4-((2-(8-(oxetan-3-yl)-3,8-diazabicyclo[3.2.1]octan-3-yl)pyrimidin-5-yl)ethynyl)benzyl)-3,6,13-trioxo-5-(1,1,1-trifluoro-2-methylpropan-2-yl)-2-oxa-4,7,11,12-tetraazahexadecan-14-yl)carbamate] | <0.11 | – | 5.24 | –
4 | <0.11 | <0.18 | COC(=O)N[C@H](C(=O)N[C@@H](Cc1ccc(C#Cc2cnc(N3CC4CCC(C3)N4C3COC3)nc2)cc1)[C@@H](O)CN(Cc1c(F)cc(-c2cn(C(F)F)cn2)cc1F)NC(=O)[C@@H](NC(=O)OC)C(C)(C)C(F)(F)F)C(C)(C)C(F)(F)F [Example 133, Methyl ((5S,10S,11S,14S)-8-(4-(1-(difluoromethyl)-1H-imidazol-4-yl)-2,6-difluorobenzyl)-16,16,16-trifluoro-10-hydroxy-15,15-dimethyl-11-(4-((2-(8-(oxetan-3-yl)-3,8-diazabicyclo[3.2.]octan-3-yl)pyrimidin-5-yl)ethynyl)benzyl)-3,6,13-trioxo-5-(1,1,1-trifluoro-2-methylpropan-2-yl)-2-oxa-4,7,8,12-tetraazahexadecan-14-yl)carbamate] | – | – | – | 3.44
